Source: patent US20100267561A1, “HERBICIDAL PYRIDAZINONE DERIVATIVES” (priority 2007, published 2010)

What was measured:
Assay in all cases: Test E pre-/postemergence plant response
Type in all cases: in vivo
Details in all cases: scale 0 to 100
[1] = system: Italian ryegrass (Lolium multiflorum)
How it was run: (§1)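 Plant response was judged by eye relative to controls, 0 meaning no effect and 100 complete control, after 14 to 21 days under greenhouse conditions. Compound was formulated in a non-phytotoxic solvent mixture with surfactant.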

[2] = system: black mustard (Brassica nigra)
How it was run: as §1

[3] = system: common groundsel (Senecio vulgaris)
How it was run: as §1

[4] = system: common purslane (Portulaca oleracea)
How it was run: as §1

[5] = system: goosegrass (Eleusine indica)
How it was run: as §1

[6] = system: guineagrass (Panicum maximum)
How it was run: as §1

[7] = system: large crabgrass (Digitaria sanguinalis)
How it was run: as §1

[8] = system: pitted morningglory (Ipomoea lacunosa)
How it was run: as §1

[9] = system: purple nutsedge (Cyperus rotundus)
How it was run: as §1

[10] = system: quackgrass (Elytrigia repens)
How it was run: as §1

[11] = system: southern (S.) sandbur (Cenchrus echinatus)
How it was run: as §1

[12] = system: surinam grass (Brachiaria decumbens)
How it was run: as §1

CCc1cc(-c2ccc(C(F)(F)F)cc2)nn1-c1c(OS(C)(=O)=O)cnn(C)c1=O [Compound 19]
15: Plant response rating, Goosegrass ([5]; Preemergence, 4 g ai/ha) | Plant response rating, Crabgrass, Large ([7]; 8 g ai/ha, Preemergence) | Plant response rating, Quackgrass ([10]; Postemergence, 8 g ai/ha)
100: Plant response rating, Ryegrass, Italian ([1]; 16 g ai/ha, Preemergence) | Plant response rating, Ryegrass, Italian ([1]; 31 g ai/ha, Preemergence) | Plant response rating, Ryegrass, Italian ([1]; Postemergence, 16 g ai/ha) | Plant response rating, Ryegrass, Italian ([1]; Postemergence, 31 g ai/ha) | Plant response rating, Guineagrass ([6]; 16 g ai/ha, Preemergence) | Plant response rating, Guineagrass ([6]; 31 g ai/ha, Preemergence) | Plant response rating, Crabgrass, Large ([7]; 31 g ai/ha, Preemergence) | Plant response rating, Sandbur, S. ([11]; Postemergence, 31 g ai/ha) | Plant response rating, Surinam Grass ([12]; 16 g ai/ha, Preemergence) | Plant response rating, Surinam Grass ([12]; 31 g ai/ha, Preemergence) | Plant response rating, Surinam Grass ([12]; Postemergence, 31 g ai/ha)
30: Plant response rating, Crabgrass, Large ([7]; 4 g ai/ha, Postemergence)
70: Plant response rating, Goosegrass ([5]; 16 g ai/ha, Preemergence) | Plant response rating, Surinam Grass ([12]; Postemergence, 8 g ai/ha)
0: Plant response rating, Mustard, Black ([2]; 4 g ai/ha, Postemergence) | Plant response rating, Mustard, Black ([2]; 8 g ai/ha, Preemergence) | Plant response rating, Mustard, Black ([2]; 16 g ai/ha, Preemergence) | Plant response rating, Mustard, Black ([2]; 31 g ai/ha, Preemergence) | Plant response rating, Mustard, Black ([2]; Postemergence, 8 g ai/ha) | Plant response rating, Mustard, Black ([2]; Postemergence, 16 g ai/ha) | Plant response rating, Mustard, Black ([2]; Postemergence, 31 g ai/ha) | Plant response rating, Mustard, Black ([2]; Preemergence, 4 g ai/ha) | Plant response rating, Groundsel ([3]; 4 g ai/ha, Postemergence) | Plant response rating, Groundsel ([3]; 16 g ai/ha, Preemergence) | Plant response rating, Groundsel ([3]; 31 g ai/ha, Preemergence) | Plant response rating, Groundsel ([3]; Postemergence, 8 g ai/ha) | Plant response rating, Groundsel ([3]; Postemergence, 16 g ai/ha) | Plant response rating, Groundsel ([3]; Postemergence, 31 g ai/ha) | Plant response rating, Groundsel ([3]; Preemergence, 4 g ai/ha) | Plant response rating, Purslane ([4]; 4 g ai/ha, Postemergence) | Plant response rating, Purslane ([4]; 16 g ai/ha, Preemergence) | Plant response rating, Purslane ([4]; 31 g ai/ha, Preemergence) | Plant response rating, Purslane ([4]; Postemergence, 8 g ai/ha) | Plant response rating, Purslane ([4]; Postemergence, 16 g ai/ha) | Plant response rating, Purslane ([4]; Postemergence, 31 g ai/ha) | Plant response rating, Purslane ([4]; Preemergence, 4 g ai/ha) | Plant response rating, Goosegrass ([5]; 4 g ai/ha, Postemergence) | Plant response rating, Crabgrass, Large ([7]; Preemergence, 4 g ai/ha) | Plant response rating, Morningglory ([8]; 4 g ai/ha, Postemergence) | Plant response rating, Morningglory ([8]; 16 g ai/ha, Preemergence) | Plant response rating, Morningglory ([8]; 31 g ai/ha, Preemergence) | Plant response rating, Morningglory ([8]; Postemergence, 8 g ai/ha) | Plant response rating, Morningglory ([8]; Postemergence, 16 g ai/ha) | Plant response rating, Morningglory ([8]; Postemergence, 31 g ai/ha) | Plant response rating, Morningglory ([8]; Preemergence, 4 g ai/ha) | Plant response rating, Nutsedge, Purple ([9]; 4 g ai/ha, Postemergence) | Plant response rating, Nutsedge, Purple ([9]; Postemergence, 16 g ai/ha) | Plant response rating, Nutsedge, Purple ([9]; Preemergence, 4 g ai/ha) | Plant response rating, Quackgrass ([10]; 4 g ai/ha, Postemergence) | Plant response rating, Quackgrass ([10]; Preemergence, 4 g ai/ha) | Plant response rating, Sandbur, S. ([11]; Preemergence, 4 g ai/ha)
95: Plant response rating, Guineagrass ([6]; Postemergence, 16 g ai/ha) | Plant response rating, Crabgrass, Large ([7]; 16 g ai/ha, Preemergence) | Plant response rating, Sandbur, S. ([11]; 31 g ai/ha, Preemergence) | Plant response rating, Surinam Grass ([12]; Postemergence, 16 g ai/ha)
65: Plant response rating, Ryegrass, Italian ([1]; Preemergence, 4 g ai/ha) | Plant response rating, Quackgrass ([10]; 16 g ai/ha, Preemergence)
98: Plant response rating, Guineagrass ([6]; Postemergence, 31 g ai/ha) | Plant response rating, Sandbur, S. ([11]; Postemergence, 8 g ai/ha) | Plant response rating, Sandbur, S. ([11]; Postemergence, 16 g ai/ha)
80: Plant response rating, Guineagrass ([6]; 4 g ai/ha, Postemergence) | Plant response rating, Crabgrass, Large ([7]; Postemergence, 31 g ai/ha) | Plant response rating, Quackgrass ([10]; 31 g ai/ha, Preemergence) | Plant response rating, Quackgrass ([10]; Postemergence, 31 g ai/ha) | Plant response rating, Sandbur, S. ([11]; 16 g ai/ha, Preemergence)
25: Plant response rating, Goosegrass ([5]; Postemergence, 8 g ai/ha)
75: Plant response rating, Goosegrass ([5]; Postemergence, 31 g ai/ha) | Plant response rating, Quackgrass ([10]; Postemergence, 16 g ai/ha)
40: Plant response rating, Goosegrass ([5]; 8 g ai/ha, Preemergence) | Plant response rating, Crabgrass, Large ([7]; Postemergence, 8 g ai/ha)
35: Plant response rating, Surinam Grass ([12]; 4 g ai/ha, Postemergence)
90: Plant response rating, Ryegrass, Italian ([1]; Postemergence, 8 g ai/ha) | Plant response rating, Goosegrass ([5]; 31 g ai/ha, Preemergence) | Plant response rating, Guineagrass ([6]; Postemergence, 8 g ai/ha) | Plant response rating, Sandbur, S. ([11]; 4 g ai/ha, Postemergence)
50: Plant response rating, Ryegrass, Italian ([1]; 4 g ai/ha, Postemergence) | Plant response rating, Surinam Grass ([12]; Preemergence, 4 g ai/ha)
60: Plant response rating, Goosegrass ([5]; Postemergence, 16 g ai/ha) | Plant response rating, Guineagrass ([6]; Preemergence, 4 g ai/ha) | Plant response rating, Crabgrass, Large ([7]; Postemergence, 16 g ai/ha)
